Results reported in US20090068286A1, “METHOD OF TREATING CANCER BY ADMINISTRATION OF 5-SUBSTITUTED NUCLEOSIDES” (RESprotect, GmbH, priority 2007, published 2009).
Entries after “also recorded” stand apart in the source; their conditions may differ.

Key:
[1] = test system: AH13r tumor cells; assay: Hoechst 33258/propidium iodide (Hopi) double coloration for apoptosis; type: cell-based, rat; conditions: co-treatment of cytostatic with BVDU
Description: The indication that the reduction in cell number is based on apoptosis, was detected by means of Hoechst 33258/propidium iodide (Hopi) double coloration.

[2] = test system: Yoshida AH13r hepatoma cells; assay: Growth of s.c. Yoshida AH13r hepatoma tumors in SD-rats; type: in vivo, rat
Procedure: Ten SD-rats per treatment group were given a single s.c. injection of ascites Yoshida AH13r hepatoma cells. Five to 7 days after tumor application, the growth of the resulting tumors (at the injection site) was suppressed by i.p. treatment of the animals with cisplatin, doxorubicin or cyclophosphamide, or by additional oral treatment with 15 mg/kg BVDU (15 times within 3 weeks).

[3] = test system: JUN-D; assay: Western Blot analysis of survival pathways: JUN-D; type: cell-based
Procedure: Different “survival pathways” were tested by means of Western Blot analysis. The analyses were implemented according to standard methods, as is described in Sambrook et al., 2001, Molecular Cloning (3rd ed.). Antibody dilutions: P-STAT3 (cell signaling) 1: 500, JUN-D (Santa Cruz, Calif.) 1: 1,000.
The densitometrically determined content of oncogene proteins JUN-D and STAT3 was reduced by a quarter or two thirds after DOX treatment in the recovery phase (r=recovery phase). In the “recovery” only BVDU is given, no cytostatic.

O=c1[nH]c(=O)n([C@H]2C[C@H](O)[C@@H](CO)O2)cc1/C=C/Br [BVDU, (E)-5-(2-bromovinyl)-2′-deoxyuridine]
Apoptosis (HOPI double coloration) [1]: promotes apoptosis | Effect on tumor size ([2]; BVDU 50 mg/kg given only on the same day as cisplatin, no recovery phase): only weak | Effect on tumor size ([2]; BVDU 15 times alone in the recovery phase, one time together with cyclophosphamide): strong effect | Effect on tumor size ([2]; BVDU alone or in combination with DOX, recovery phase 6× one day): strong effect | Influence on the growth of rat tumors ([2]; BVDU given alone, oral): no influence | Effect on tumor size ([2]; BVDU with CIS, recovery phase 4×3 or 2 days): very strong | Inhibition of MMC induced JUN-D overexpression ([3]; BVDU given in the “recovery” after MMC): complete inhibition | Reduction of JUN-D protein content (densitometry) ([3]; after DOX treatment, recovery phase: only BVDU given, no cytostatic): approximately one quarter; also recorded: a quarter
